In brackets after ≈: the same amount, converted by molar mass. Like-named read-outs stand apart in the source and are kept apart here.
What was measured:
[1] = test system: S. aureus; assay: MIC by serial two-fold agar dilution (Mueller-Hinton agar), S. aureus; assay type: cell-based; conditions: Staphylococcus aureus
Protocol: (§1) Minimum inhibitory concentrations (MIC) of BB-S520 were determined by serial two-fold agar dilution method using Steers' apparatus on Meuller-Hinton agar plate against 31 test organisms for the primary screening and also against 61 strains of Pseudomonas aeruginosa for the secondary evaluation. The results are shown in Table 1 and Table 2 along with those of BB-S514 and sulbenicillin.
(§2) Minimum inhibitory concentrations (MIC) of cephalosporins in the present study were determined by serial two-fold agar dilution method using Steers' apparatus on Mueller-Hinton agar plate against 31 test organisms for the primary screening and also against 61 strains of Pseudomonas aeruginosa for the secondary evaluation.

[2] = test system: Ps. aeruginosa A9843; assay: Median curative dose in mice, infection with Ps. aeruginosa; assay type: in vivo; conditions: for ED50: Pseudomonas aeruginosa, A9843, sc
Text: (§3) Median Curative Dose in Mgm./Kg.
(§4) Upon Subcutaneous Injection in Mice

[3] = test system: S. enteritidis; assay: MIC by serial two-fold agar dilution (Mueller-Hinton agar), S. enteritidis; assay type: cell-based
Protocol: as §1, §2

[4] = test system: S. marcescens; assay: MIC by serial two-fold agar dilution (Mueller-Hinton agar), S. marcescens; assay type: cell-based
Protocol: as §1, §2

[5] = test system: E. coli Juhl; assay: Median curative dose in mice, infection with E. coli Juhl; assay type: in vivo; conditions: Escherichia coli, sc
Text: as §3, §4

[6] = test system: P. aeruginosa; assay: MIC by serial two-fold agar dilution (Mueller-Hinton agar), P. aeruginosa, primary screening; assay type: cell-based
Protocol: as §1, §2

[7] = test system: E. cloacae; assay: MIC by serial two-fold agar dilution (Mueller-Hinton agar), E. cloacae; assay type: cell-based; conditions: Enterobacter cloacae
Protocol: as §1, §2

[8] = test system: P. mirabilis; assay: MIC by serial two-fold agar dilution (Mueller-Hinton agar), P. mirabilis; assay type: cell-based
Protocol: as §1, §2

[9] = test system: Pseudomonas aeruginosa; assay: MIC by agar dilution against 61 strains of Pseudomonas aeruginosa, secondary evaluation; assay type: cell-based
Protocol: as §1, §2

CC1(C)S[C@@H]2[C@H](NC(=O)C(c3ccccc3)S(=O)(=O)O)C(=O)N2[C@H]1C(=O)O (some centres unmarked) [Sulbenicillin, sulbenicillin]
MIC ([1]; S. aureus BX-1633, Table 1, read-out: MIC): 3.1 µg/mL (≈ 7.48 µM)
MIC ([1]; S. aureus BX-1633 A9606, Table 6, read-out: MIC): 3.1 µg/mL (≈ 7.48 µM)
MIC ([1]; S. aureus Smith (1st line), Table 1, read-out: MIC): 1.6 µg/mL (≈ 3.86 µM)
MIC ([1]; S. aureus Smith (2nd line), Table 1, read-out: MIC): 6.3 µg/mL (≈ 15.2 µM)
MIC ([1]; S. aureus Smith A9537, Table 6, read-out: MIC): 3.1 µg/mL (≈ 7.48 µM)
MIC ([1]; S. aureus Smith A15907, Table 6): 12.5 µg/mL (≈ 30.2 µM)
MIC ([1]; S. aureus Smith A20239, Table 6, read-out: MIC): 6.3 µg/mL (≈ 15.2 µM)
MIC ([1]; S. aureus Smith A20240, Table 6, read-out: MIC): 6.3 µg/mL (≈ 15.2 µM)
MIC ([1]; S. aureus Smith A20701, Table 6, read-out: MIC): 50 µg/mL (≈ 121 µM)
MIC ([1]; S. aureus, unnamed strain (4th S. aureus line), Table 1, read-out: MIC): 25 µg/mL (≈ 60.3 µM)
MIC ([1]; S. aureus, unnamed strain (5th S. aureus line), Table 1, read-out: MIC): 3.1 µg/mL (≈ 7.48 µM)
MIC ([1]; S. aureus, unnamed strain (6th S. aureus line), Table 1, read-out: MIC): 50 µg/mL (≈ 121 µM)
ED50 ([2]; mice, P. aerug. A9843 infection, Table 5, read-out: PD50): 140 mg/kg
ED50 ([2]; subcutaneous injection in mice, Ps. aeruginosa, Table 4, read-out: Median Curative Dose (PD50)): 85 mg/kg
PD50 ([2]; mice, P. aerug. A9843 infection, Table 5): 130 mg/kg
MIC ([3]; S. enteritidis A9531, Table 6): 1.6 µg/mL (≈ 3.86 µM)
MIC ([3]; Salmonella enterica, S. enteritidis, Table 1, read-out: MIC): 1.6 µg/mL (≈ 3.86 µM)
MIC ([4]; S. marcescens A20019, Table 6): 6.3 µg/mL (≈ 15.2 µM)
MIC ([4]; Serratia marcescens, S. marcescens, Table 1, read-out: MIC): 6.3 µg/mL (≈ 15.2 µM)
ED50 ([5]; mice, E. coli Juhl infection, Table 5, read-out: PD50): 8.5 mg/kg
ED50 ([5]; subcutaneous injection in mice, E. coli Juhl, Table 4, read-out: Median Curative Dose (PD50)): 9.5 mg/kg
MIC ([6]; P. aeruginosa (5th line), Table 1): 12.5 Mcg./Ml.
MIC ([6]; P. aeruginosa A15150, Table 6): 12.5 µg/mL (≈ 30.2 µM)
MIC ([6]; P. aeruginosa A20229, Table 6): 12.5 µg/mL (≈ 30.2 µM)
MIC ([6]; Pseudomonas aeruginosa): 12.5 µg/mL (≈ 30.2 µM)
MIC ([6]; Pseudomonas aeruginosa, P. aeruginosa (2nd line), Table 1, read-out: MIC): 25 µg/mL (≈ 60.3 µM)
MIC ([6]; Pseudomonas aeruginosa, P. aeruginosa (3rd line), Table 1, read-out: MIC): 25 µg/mL (≈ 60.3 µM)
MIC ([6]; Pseudomonas aeruginosa, P. aeruginosa (4th line), Table 1, read-out: MIC): 100 µg/mL (≈ 241 µM)
MIC ([6]; Pseudomonas aeruginosa, P. aeruginosa (6th line), Table 1, read-out: MIC): 3.1 µg/mL (≈ 7.48 µM)
MIC ([6]; Pseudomonas aeruginosa, P. aeruginosa A9843, Table 6, read-out: MIC): 25 µg/mL (≈ 60.3 µM)
MIC ([6]; Pseudomonas aeruginosa, P. aeruginosa A9930, Table 6, read-out: MIC): 25 µg/mL (≈ 60.3 µM)
MIC ([6]; Pseudomonas aeruginosa, P. aeruginosa A20717, Table 6, read-out: MIC): 100 µg/mL (≈ 241 µM)
MIC ([7]; E. cloacae (1st line), Table 1): 12.5 µg/mL (≈ 30.2 µM)
MIC ([7]; E. cloacae (2nd line), Table 1): > 100 µg/mL
MIC ([7]; E. cloacae (3rd line), Table 1): 12.5 µg/mL (≈ 30.2 µM)
MIC ([7]; E. cloacae A9656, Table 6): 12.5 µg/mL (≈ 30.2 µM)
MIC ([7]; E. cloacae A9657, Table 6): > 100 µg/mL
MIC ([7]; E. cloacae A9659, Table 6): 12.5 µg/mL (≈ 30.2 µM)
MIC ([8]; P. mirabilis A9900, Table 6): 0.8 µg/mL (≈ 1.93 µM)
MIC ([8]; Proteus mirabilis, P. mirabilis, Table 1, read-out: MIC): 0.8 µg/mL (≈ 1.93 µM)
MIC ([9]; BBRI Pa-No. 1, D15, Table 7): 12.5 µg/mL (≈ 30.2 µM)
MIC ([9]; BBRI Pa-No. 3, 1449VA, Table 7): 12.5 µg/mL (≈ 30.2 µM)
MIC ([9]; BBRI Pa-No. 4, H9 D113, Table 7): 12.5 µg/mL (≈ 30.2 µM)
MIC ([9]; BBRI Pa-No. 9, Yale, Table 7): 12.5 µg/mL (≈ 30.2 µM)
MIC ([9]; BBRI Pa-No. 14, Table 7): 12.5 µg/mL (≈ 30.2 µM)
MIC ([9]; BBRI Pa-No. 17, H6 D114, Table 2): 12.5 µg/mL (≈ 30.2 µM)
MIC ([9]; BBRI Pa-No. 18, H8 D121, Table 2): 12.5 µg/mL (≈ 30.2 µM)
MIC ([9]; BBRI Pa-No. 19, Table 2): 12.5 µg/mL (≈ 30.2 µM)
MIC ([9]; BBRI Pa-No. 25, Table 2): 12.5 µg/mL (≈ 30.2 µM)
MIC ([9]; BBRI Pa-No. 26, Ps32, Table 2): 12.5 µg/mL (≈ 30.2 µM)
MIC ([9]; BBRI Pa-No. 26, Ps32, Table 7): 12.5 µg/mL (≈ 30.2 µM)
MIC ([9]; BBRI Pa-No. 31, Table 2): 12.5 µg/mL (≈ 30.2 µM)
MIC ([9]; BBRI Pa-No. 34, Table 7): 12.5 µg/mL (≈ 30.2 µM)
MIC ([9]; BBRI Pa-No. 60, Table 2): 12.5 µg/mL (≈ 30.2 µM)
MIC ([9]; BBRI Pa-No. 60, Table 7): 12.5 µg/mL (≈ 30.2 µM)
MIC ([9]; Pseudomonas aeruginosa): 12.5 µg/mL (≈ 30.2 µM)
MIC ([9]; Pseudomonas aeruginosa, 61 strains of Pseudomonas aeruginosa, Table 7, read-out: Geometric Mean of MIC): 24 µg/mL (≈ 57.9 µM)
MIC ([9]; Pseudomonas aeruginosa, BBRI Pa-No. 1, D15, Table 2, read-out: MIC): 25 µg/mL (≈ 60.3 µM)
MIC ([9]; Pseudomonas aeruginosa, BBRI Pa-No. 2, VA, Table 7, read-out: MIC): 25 µg/mL (≈ 60.3 µM)
MIC ([9]; Pseudomonas aeruginosa, BBRI Pa-No. 3, 1449VA, Table 2, read-out: MIC): 6.3 µg/mL (≈ 15.2 µM)
MIC ([9]; Pseudomonas aeruginosa, BBRI Pa-No. 4, H9 D113, Table 2, read-out: MIC): 25 µg/mL (≈ 60.3 µM)
MIC ([9]; Pseudomonas aeruginosa, BBRI Pa-No. 5, M4865KC, Table 2, read-out: MIC): 25 µg/mL (≈ 60.3 µM)
MIC ([9]; Pseudomonas aeruginosa, BBRI Pa-No. 5, N4865KC, Table 7, read-out: MIC): 6.3 µg/mL (≈ 15.2 µM)
MIC ([9]; Pseudomonas aeruginosa, BBRI Pa-No. 6, No. 5, Table 2, read-out: MIC): > 100 µg/mL
MIC ([9]; Pseudomonas aeruginosa, BBRI Pa-No. 6, No. 5, Table 7, read-out: MIC): 100 µg/mL (≈ 241 µM)
MIC ([9]; Pseudomonas aeruginosa, BBRI Pa-No. 7, Table 2, read-out: MIC): 25 µg/mL (≈ 60.3 µM)
MIC ([9]; Pseudomonas aeruginosa, BBRI Pa-No. 7, Table 7, read-out: MIC): 25 µg/mL (≈ 60.3 µM)
MIC ([9]; Pseudomonas aeruginosa, BBRI Pa-No. 8, Table 2, read-out: MIC): 25 µg/mL (≈ 60.3 µM)
MIC ([9]; Pseudomonas aeruginosa, BBRI Pa-No. 8, Table 7, read-out: MIC): 25 µg/mL (≈ 60.3 µM)
MIC ([9]; Pseudomonas aeruginosa, BBRI Pa-No. 9, Yale, Table 2, read-out: MIC): 25 µg/mL (≈ 60.3 µM)
MIC ([9]; Pseudomonas aeruginosa, BBRI Pa-No. 10, Table 2, read-out: MIC): > 100 µg/mL
MIC ([9]; Pseudomonas aeruginosa, BBRI Pa-No. 10, Table 7, read-out: MIC): > 100 µg/mL
MIC ([9]; Pseudomonas aeruginosa, BBRI Pa-No. 11, Table 2, read-out: MIC): 25 µg/mL (≈ 60.3 µM)
MIC ([9]; Pseudomonas aeruginosa, BBRI Pa-No. 11, Table 7, read-out: MIC): 25 µg/mL (≈ 60.3 µM)
MIC ([9]; Pseudomonas aeruginosa, BBRI Pa-No. 12, Table 2, read-out: MIC): 50 µg/mL (≈ 121 µM)
MIC ([9]; Pseudomonas aeruginosa, BBRI Pa-No. 12, Table 7, read-out: MIC): 25 µg/mL (≈ 60.3 µM)
MIC ([9]; Pseudomonas aeruginosa, BBRI Pa-No. 14, Table 2, read-out: MIC): 25 µg/mL (≈ 60.3 µM)
MIC ([9]; Pseudomonas aeruginosa, BBRI Pa-No. 15, Table 2, read-out: MIC): 100 µg/mL (≈ 241 µM)
MIC ([9]; Pseudomonas aeruginosa, BBRI Pa-No. 15, Table 7, read-out: MIC): 50 µg/mL (≈ 121 µM)
MIC ([9]; Pseudomonas aeruginosa, BBRI Pa-No. 16, No. 130, Table 2, read-out: MIC): 6.3 µg/mL (≈ 15.2 µM)
MIC ([9]; Pseudomonas aeruginosa, BBRI Pa-No. 16, No. 130, Table 7, read-out: MIC): 3.1 µg/mL (≈ 7.48 µM)
MIC ([9]; Pseudomonas aeruginosa, BBRI Pa-No. 17, H6 D114, Table 7, read-out: MIC): 25 µg/mL (≈ 60.3 µM)
MIC ([9]; Pseudomonas aeruginosa, BBRI Pa-No. 18, H8 D121, Table 7, read-out: MIC): 3.1 µg/mL (≈ 7.48 µM)
